PMC6631223, “Chain-Branched Polyhydroxylated Octahydro-1H-Indoles as Potential Leads against Lysosomal Storage Diseases” (Pharmaceuticals, 2019)

Experiments:
Type in all cases: biochemical
α-Glucosidase (yeast) = biological target: T1, α-Glucosidase (yeast) (Saccharomyces cerevisiae, UniProt P53341); experiment: Glycosidase inhibition: α-glucosidase (yeast)
T1 construct: purchased Sigma-Aldrich Co
Source text: (§1) The enzymes α-glucosidase (from yeast, rice), β-glucosidase (from almonds, bovine liver), α-galactosidase (from coffee beans), β-galactosidase (from bovine liver), α-mannosidase (from jack beans), β-mannosidase (from snails), α-L-fucosidase (from bovine kidney), α-L-rhamnosidase (from Penicillium decumbens), β-glucuronidases (from Escherichia coli), α,α-trehalase (from porcine kidney), amyloglucosidase (from Aspergillus niger), p-nitrophenyl glycosides, and various disaccharides were purchased from Sigma-Aldrich Co. Brush border membranes were prepared from the rat small intestine according to the method of Kessler et al., and were assayed at pH 6.8 for rat intestinal maltase using maltose. For rat intestinal glucosidases and porcine kidney trehalase activities, the reaction mixture (0.2 mL) contained 25 mM substrate and the appropriate amount of enzyme, and the incubations were performed for 10 min at 37 °C. The reaction was stopped by heating at 100 °C for 3 min. After centrifugation (600 g; 10 min), 0.035 mL of the resulting reaction mixture were added to 2.1 mL of the Glucose CII-test Wako (Wako Pure Chemical Ind., Osaka, Japan). The absorbance at 505 nm was measured to determine the amount of the released D-glucose. Other glycosidase activities were determined using an appropriate p-nitrophenyl glycoside as substrate at the optimum pH of each enzyme. The reaction mixture (0.2 mL) contained 2 mM of the substrate and the appropriate amount of enzyme. The reaction was stopped by adding 0.4 mL of 400 mM Na2CO3. The released p-nitrophenol was measured spectrometrically at 400 nm.

α-Glucosidase (rice) = biological target: T2, α-Glucosidase (rice) (Oryza sativa subsp. japonica, UniProt Q653V7); experiment: Glycosidase inhibition: α-glucosidase (rice)
T2 construct: purchased Sigma-Aldrich Co
Source text: as §1

Rat intestinal maltase = experiment: Glycosidase inhibition: rat intestinal maltase; conditions: maltose, pH 6.8
Source text: as §1

β-Glucosidase (almond) = experiment: Glycosidase inhibition: β-glucosidase (almond)
Source text: as §1

[1] = biological target: T3, α-Galactosidase (coffee beans) (Coffea arabica, UniProt Q42656); experiment: Glycosidase inhibition: α-galactosidase (coffee beans); conditions: α-galactosidase, coffee beans
T3 construct: purchased Sigma-Aldrich Co
Source text: as §1

[2] = biological target: T4, Lactase (β-Galactosidase) (Rattus norvegicus, UniProt Q02401); experiment: Glycosidase inhibition: lactase; conditions: lactase
T4 construct: Brush border membranes were prepared from the rat small intestine; from tissue; host or cells: rat small intestine brush border membranes (inferred)
T4 sequence (Q02401 868-1928): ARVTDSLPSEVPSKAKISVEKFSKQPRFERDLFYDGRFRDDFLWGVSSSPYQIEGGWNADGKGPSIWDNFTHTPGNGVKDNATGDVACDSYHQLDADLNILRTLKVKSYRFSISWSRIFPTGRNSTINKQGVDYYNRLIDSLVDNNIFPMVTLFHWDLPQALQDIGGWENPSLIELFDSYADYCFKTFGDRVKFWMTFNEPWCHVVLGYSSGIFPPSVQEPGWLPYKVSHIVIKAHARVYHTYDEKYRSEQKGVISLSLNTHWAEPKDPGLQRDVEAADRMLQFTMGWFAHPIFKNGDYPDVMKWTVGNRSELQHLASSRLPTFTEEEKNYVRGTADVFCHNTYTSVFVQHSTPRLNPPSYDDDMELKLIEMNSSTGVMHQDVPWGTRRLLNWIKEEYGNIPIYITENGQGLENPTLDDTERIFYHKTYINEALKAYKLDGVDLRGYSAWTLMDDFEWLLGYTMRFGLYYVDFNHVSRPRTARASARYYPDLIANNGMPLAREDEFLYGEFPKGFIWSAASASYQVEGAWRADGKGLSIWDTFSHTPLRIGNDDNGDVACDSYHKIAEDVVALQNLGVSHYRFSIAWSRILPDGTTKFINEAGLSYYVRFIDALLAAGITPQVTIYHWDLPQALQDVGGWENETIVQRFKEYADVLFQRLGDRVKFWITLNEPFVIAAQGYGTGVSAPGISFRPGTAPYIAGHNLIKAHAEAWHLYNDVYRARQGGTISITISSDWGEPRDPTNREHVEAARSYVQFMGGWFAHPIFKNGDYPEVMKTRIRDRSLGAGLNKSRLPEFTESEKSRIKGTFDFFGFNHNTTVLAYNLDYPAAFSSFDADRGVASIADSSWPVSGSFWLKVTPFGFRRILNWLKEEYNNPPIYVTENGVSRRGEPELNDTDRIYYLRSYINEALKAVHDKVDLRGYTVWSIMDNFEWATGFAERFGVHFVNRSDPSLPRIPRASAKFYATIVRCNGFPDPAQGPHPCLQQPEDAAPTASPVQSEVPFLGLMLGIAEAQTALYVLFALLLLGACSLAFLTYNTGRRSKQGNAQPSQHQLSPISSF
Source text: as §1

β-Mannosidase (snail) = experiment: Glycosidase inhibition: β-mannosidase (snail)
Source text: as §1

[3] = biological target: T5, α-L-Fucosidase (bovine kidney) (Bos taurus, UniProt Q2KIM0); experiment: Glycosidase inhibition: α-L-fucosidase (bovine kidney); conditions: α-L-fucosidase, bovine kidney
T5 construct: purchased Sigma-Aldrich Co; host or cells: bovine kidney
T5 sequence (Q2KIM0 23-468): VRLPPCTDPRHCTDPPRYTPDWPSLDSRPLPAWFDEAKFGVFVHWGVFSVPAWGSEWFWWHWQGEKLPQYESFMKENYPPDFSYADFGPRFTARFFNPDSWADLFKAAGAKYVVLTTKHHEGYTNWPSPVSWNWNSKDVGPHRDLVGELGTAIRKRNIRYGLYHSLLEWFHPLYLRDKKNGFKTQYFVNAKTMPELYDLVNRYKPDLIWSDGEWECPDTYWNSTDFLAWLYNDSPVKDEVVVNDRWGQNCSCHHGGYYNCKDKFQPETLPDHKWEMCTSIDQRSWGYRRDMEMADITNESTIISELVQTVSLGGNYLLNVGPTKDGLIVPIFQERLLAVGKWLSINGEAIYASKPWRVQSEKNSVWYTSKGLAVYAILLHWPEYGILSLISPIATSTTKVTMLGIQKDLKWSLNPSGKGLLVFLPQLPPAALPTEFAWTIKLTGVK
Source text: as §1

β-Glucronidase (E.coli) = biological target: T6, β-Glucronidase (E.coli) (Escherichia coli, UniProt P05804); experiment: Glycosidase inhibition: β-glucuronidase (E. coli)
T6 construct: purchased Sigma-Aldrich Co
Source text: as §1

Amyloglucosidase = biological target: T7, Amyloglucosidase (Aspergillus niger, UniProt P69328); experiment: Glycosidase inhibition: amyloglucosidase (Aspergillus niger)
T7 construct: purchased Sigma-Aldrich Co
Source text: as §1

T6 sequence (P05804 whole entry): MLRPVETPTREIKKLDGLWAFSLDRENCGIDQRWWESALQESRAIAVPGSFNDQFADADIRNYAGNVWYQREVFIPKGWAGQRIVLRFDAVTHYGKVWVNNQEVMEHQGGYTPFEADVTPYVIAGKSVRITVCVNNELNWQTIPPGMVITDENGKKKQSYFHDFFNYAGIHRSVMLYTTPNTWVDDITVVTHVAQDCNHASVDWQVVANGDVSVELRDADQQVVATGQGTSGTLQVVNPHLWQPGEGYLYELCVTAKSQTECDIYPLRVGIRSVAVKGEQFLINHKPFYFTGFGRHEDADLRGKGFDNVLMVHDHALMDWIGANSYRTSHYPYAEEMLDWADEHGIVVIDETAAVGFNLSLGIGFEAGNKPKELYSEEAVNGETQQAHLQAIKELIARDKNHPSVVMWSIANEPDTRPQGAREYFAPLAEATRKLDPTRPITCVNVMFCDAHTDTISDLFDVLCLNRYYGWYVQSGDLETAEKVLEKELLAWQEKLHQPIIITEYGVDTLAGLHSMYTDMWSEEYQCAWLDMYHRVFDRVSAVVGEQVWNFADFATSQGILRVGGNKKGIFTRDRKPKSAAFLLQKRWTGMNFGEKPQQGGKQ
T7 sequence (P69328 25-640): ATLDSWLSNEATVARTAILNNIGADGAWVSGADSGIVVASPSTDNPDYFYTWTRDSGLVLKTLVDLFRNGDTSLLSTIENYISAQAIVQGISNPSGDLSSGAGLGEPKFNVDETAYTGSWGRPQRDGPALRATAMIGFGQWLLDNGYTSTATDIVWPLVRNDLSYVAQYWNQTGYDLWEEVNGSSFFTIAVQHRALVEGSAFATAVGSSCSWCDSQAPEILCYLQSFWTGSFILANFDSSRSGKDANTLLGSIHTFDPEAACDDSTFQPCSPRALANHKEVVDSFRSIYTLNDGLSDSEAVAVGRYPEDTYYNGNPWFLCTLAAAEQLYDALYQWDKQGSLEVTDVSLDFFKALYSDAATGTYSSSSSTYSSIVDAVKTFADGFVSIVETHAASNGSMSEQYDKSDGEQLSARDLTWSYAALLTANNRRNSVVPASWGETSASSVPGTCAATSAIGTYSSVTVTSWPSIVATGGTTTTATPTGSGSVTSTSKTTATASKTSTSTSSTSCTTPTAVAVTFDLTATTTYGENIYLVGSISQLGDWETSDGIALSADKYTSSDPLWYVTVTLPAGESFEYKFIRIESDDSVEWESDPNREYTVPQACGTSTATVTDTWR
T1 sequence (P53341 whole entry): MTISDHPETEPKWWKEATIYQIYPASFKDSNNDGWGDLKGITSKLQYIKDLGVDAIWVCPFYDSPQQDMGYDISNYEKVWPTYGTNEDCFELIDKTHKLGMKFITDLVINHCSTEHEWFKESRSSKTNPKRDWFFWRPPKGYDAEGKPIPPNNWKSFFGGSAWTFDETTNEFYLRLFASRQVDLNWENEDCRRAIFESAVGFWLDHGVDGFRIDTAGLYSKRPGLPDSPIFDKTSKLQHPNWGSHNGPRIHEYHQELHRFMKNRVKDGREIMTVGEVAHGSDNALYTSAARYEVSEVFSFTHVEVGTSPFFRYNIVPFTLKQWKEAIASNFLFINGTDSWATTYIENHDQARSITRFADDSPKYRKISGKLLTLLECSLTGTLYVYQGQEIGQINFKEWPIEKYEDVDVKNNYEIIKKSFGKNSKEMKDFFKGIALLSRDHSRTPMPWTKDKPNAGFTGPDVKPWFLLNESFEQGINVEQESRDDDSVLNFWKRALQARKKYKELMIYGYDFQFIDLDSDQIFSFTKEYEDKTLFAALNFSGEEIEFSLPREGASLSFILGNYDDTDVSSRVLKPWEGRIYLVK
T2 sequence (Q653V7 34-885): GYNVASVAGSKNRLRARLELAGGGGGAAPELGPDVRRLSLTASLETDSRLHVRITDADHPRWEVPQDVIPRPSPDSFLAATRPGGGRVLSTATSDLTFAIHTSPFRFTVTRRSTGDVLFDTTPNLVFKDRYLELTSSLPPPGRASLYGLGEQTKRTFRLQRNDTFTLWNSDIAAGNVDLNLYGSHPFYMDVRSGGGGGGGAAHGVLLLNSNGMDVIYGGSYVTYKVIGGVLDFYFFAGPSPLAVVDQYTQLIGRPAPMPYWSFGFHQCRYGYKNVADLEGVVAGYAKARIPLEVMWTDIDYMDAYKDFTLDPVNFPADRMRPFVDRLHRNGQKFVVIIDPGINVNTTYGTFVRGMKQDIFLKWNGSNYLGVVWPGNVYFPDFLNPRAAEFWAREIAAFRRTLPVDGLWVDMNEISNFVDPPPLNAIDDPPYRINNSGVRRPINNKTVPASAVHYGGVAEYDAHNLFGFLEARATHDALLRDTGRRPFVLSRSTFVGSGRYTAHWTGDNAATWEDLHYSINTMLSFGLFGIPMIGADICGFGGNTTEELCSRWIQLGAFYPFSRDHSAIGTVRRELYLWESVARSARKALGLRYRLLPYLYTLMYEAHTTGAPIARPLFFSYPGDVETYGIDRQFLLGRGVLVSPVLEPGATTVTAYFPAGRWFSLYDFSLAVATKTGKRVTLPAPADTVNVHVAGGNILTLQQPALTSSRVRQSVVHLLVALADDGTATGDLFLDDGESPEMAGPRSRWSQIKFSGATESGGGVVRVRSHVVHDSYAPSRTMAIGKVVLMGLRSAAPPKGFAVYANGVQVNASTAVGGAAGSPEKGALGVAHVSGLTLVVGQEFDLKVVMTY
T3 sequence (Q42656 16-378): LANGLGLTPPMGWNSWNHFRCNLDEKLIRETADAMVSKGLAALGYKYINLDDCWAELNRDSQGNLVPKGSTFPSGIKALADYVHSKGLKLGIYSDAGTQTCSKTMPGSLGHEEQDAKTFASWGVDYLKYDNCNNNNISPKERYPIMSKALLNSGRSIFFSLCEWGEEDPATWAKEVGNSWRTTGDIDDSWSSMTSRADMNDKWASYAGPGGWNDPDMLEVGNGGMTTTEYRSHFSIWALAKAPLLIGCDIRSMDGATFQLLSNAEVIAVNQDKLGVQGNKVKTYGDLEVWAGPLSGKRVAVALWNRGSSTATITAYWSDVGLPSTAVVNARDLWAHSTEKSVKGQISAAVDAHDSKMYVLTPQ

OCCN1C[C@H](O)[C@@H](O)[C@H](O)[C@H]1CO [Miglitol, miglitol, reference compound]
IC50 (α-Glucosidase (yeast)): 70 µM
IC50 (α-Glucosidase (rice)): 170 nM
IC50 (Rat intestinal maltase): > 1 mM
IC50 (β-Glucosidase (almond)): > 1 mM
IC50 [1]: > 1 mM
IC50 [2]: > 1 mM
IC50 (β-Mannosidase (snail)): > 1 mM
IC50 [3]: > 1 mM
IC50 (β-Glucronidase (E.coli)): > 1 mM
IC50 (Amyloglucosidase): > 1 mM
